According to patent publication US5324715A, “Protein for inhibiting collagen-stimulated platelet aggregation” (Merck & Co., Inc., priority 1993, dated 1994):

B1: collagen-stimulated platelet aggregation inhibitor isolated from Haementeria officinalis salivary gland extract (leech antiplatelet protein, LAPP) (protein)
chain: QDEDAGGAGDETSEGEDTTGSDETPSTGGGGDGGNEETITAGNGDCWSKRPGWKLPDNLLTKTEFTSVDECRKMCEESAVEPSCYILQINTETNECYRNNEGDVTWSSLQYDQPNVVQWHLHACSK

Key:
washed human platelets = experiment: Collagen-stimulated platelet aggregation (aggregometer); assay type: cell-based; settings: 0.25 mM arachidonic acid added later; 2 μg/ml collagen; inhibitor of Examples 1 and 2 present
Description: Human platelets are washed in modified Tyrode's buffer with no Ca^++ with 0.2 mg/ml fibrinogen. The washed platelets are incubated at 37° C. for 2 minutes with the sample to be tested. Collagen at 1 or 2 μg/ml final concentration is added and platelet aggregation in an aggregometer is monitored. Inhibitory activity is defined as a decrease in the rate and/or extent of platelet aggregation.
The IC50 for this inhibition was 45 nM. Inhibition of collagen stimulation was overcome by later addition of 0.25 mM arachidonic acid.

| Molecule | Inhibition of collagen stimulation of platelet aggregation (by the Haementeria officinalis inhibitor) overcome by later addition (washed human platelets) | IC50 of inhibition of collagen-stimulated platelet aggregation (collagen) |
| --- | --- | --- |
| CCCCC/C=C\C/C=C\C/C=C\C/C=C\CCCC(=O)O [arachidonic acid] | overcome |  |
| B1 |  | 45 nM |
